From patent publication US20080206374A1 (priority 2003, published 2008)
Structures can show the parent of a compound that is named as a salt. Marks after values point to notes of the source that are not given here.

Key:
[1] = system: experimental acute myocardial ischemia of dogs; assay: experimental acute myocardial ischemia and myocardial infarction of anesthetized dogs (coronary artery ligature); type: in vivo
Experimental: The experimental medicaments were prepared with physiological saline to the same volume (50 ml), and injected through femoral vein at a speed of 5 ml/min with the computer minim syringe pump (Type AJ-5803, Shanghai).
The animals were anaesthetized with pentobarbital sodium (30 mg/kg, i.v), and connected with an electric respirator after tracheal intubation. The chest was opened in the position of the 4th left rib to expose the heart. The pericardium was cut out to make a pericardial bed. The laevorotatory branch of coronary artery was separated and a probe of an electromagnetic flowmeter (Type MF-1100) was placed in to measure the blood flow of coronary artery. The middle section of anterior descending branch of coronary artery was separated and a thread was put through for ligature to make a model of experimental acute myocardium myocardial ischemia. A multipoint fixed epicardium electrode was sewed up and connected with a multirunning physiological recorder (Type RM-6100, Japan Photoelectricity) to display and record the electrocardiogram of epicardium^<1>. The coronary artery was ligated for 15 minutes and recorded as a control value before medicaments administration. The experimental medicaments or physiological saline was injected through the femoral vein. At […] 15, 30, 45, 60, 90, 120, and 180 minutes after medicament administration, 30 measuring points of the epicardium electrocardiogram were recorded. The rising S-T section that is more than 2 mv was taken as a judgment standard to calculate the degree of myocardial ischemia (total mv number of the rising S-T section Σ-ST) and the range of myocardial ischemia (total point number of the rising S-T section N-ST). After intubation through the […] into the coronary vein sinus, the blood oxygen content of coronary vein was measured by a blood oxygen instrument (Type AVL912, Swiss) while the blood samples were taken before ischemia, ischemia 15 min (before administration), at 15, 30, 60, 120, and 180 minutes after medicament administration. Then the animal was intubated into the carotid to measure the blood oxygen content of artery. It was calculated together with the blood flow of coronary artery to measure the myocardial oxygen consumption:
Myocardial oxygen consumption=(blood oxygen content of artery−blood oxygen content of coronary vein)×blood flow of coronary artery/100.
The blood samples were taken at the above-mentioned time points, and then serum creatine phosphate kinase (CK) and lactic dehydrogenase (LDH) were measured with a full-automatic biochemical analyzer (Type RA-1000, USA). And ET, TXB2 and 6-Keto-PGF1 were measured with the Radioimmuno-method and with a full-automatic γ counter (Type FT-630G, Beijing).
When recording was finished at 180 minutes after medicament administration, the heart was taken out immediately, washed with physiological saline and weighed as a whole. Under the ligature line of the heart, the ventricle was cut evenly into 5 pieces parallel to the coronary sulcus. Then the pieces were placed in the N-BT solution and stained at the room temperature for 15 minutes. The infarcted area (N-BT non-stained area) and the non-infarcted area (N-BT stained area) on the lateral sides of each piece of myocardium were measured with a Multimedia Color Pathological Image Analyzing System (Type MPIAS-500, Beijing) The area of each piece of myocardium, the total area of ventricle and the area of the infarcted section were calculated. The percentage of the infarcted area over the ventricle and that over total heart were calculated.
The experimental result was processed statistically and its significance was tested with t-Test.

[2] = system: normally anaesthetized dogs; assay: cardiac hemodynamics and cardiac oxygen consumption of dogs; type: in vivo
Experimental: The experimental medicaments were prepared to the same volume (50 ml) with physiological saline, and injected through femoral vein at a speed of 5 ml/min by the computer minim syringe pump (Type AJ-5803, Shanghai).
The animals were anaesthetized intravenously with pentobarbital sodium (30 mg/kg, i.v), and connected with an electric respirator after tracheal intubation. The chests were opened in the position of the 4th left rib to expose the heart. The pericardium was cut to make a pericardial bed. The laevorotatory branch of coronary artery and the root of aorta were separated and a probe of an electromagnetic flowmeter (Type MF-1100) was placed in to measure the blood flow of coronary artery and cardiac output. The tip of left ventricle was intubated and connected with a pressure energy transducer (MPU-0.5A). The internal pressure of left ventricle was measured with a carrier amplifier (AG-601G), and the maximal ascending rate (dp/dtmax) of the internal pressure of left ventricle was measured with a differentiator (ED-601G). The animals were intubated through the external jugular vein into the coronary vein sinus and also intubated through the carotid. The blood oxygen contents of coronary vein sinus and artery were measured using a blood oxygen instrument (Type AVL912, Swiss) to calculate the myocardial oxygen consumption. Then the femoral artery was intubated to measure the blood pressure of artery. And then with the Standard Limb Lead II of electrocardiogram, the heart rate and the related parameters of electrocardiogram were calculated. With the formula, other indexes of hemodynamics were calculated: cardiac stroke output, oxygen consumption index, cardiac index, resistance of coronary artery, total peripheral resistance and oxygen utility, etc. All the above-mentioned indexes were recorded by a multirunning physiological recorder (Type RM-6000, Japan Photoelectricity) synchronously.
After the operation and the observed indexes being stable, the values before medicament were recorded, and the experimental medicaments were then administered. The values were recorded at 5 minutes of the middle of the process of administration, immediately after, and 1, 3, 5, 10, 15, 30, and 60 minutes after administered medicaments. All the measured indexes and derived parameters were processed statistically. The self-comparisons of the actual measurement values within different time periods after and before administered medicaments were made. Using the t-Test, the changed rate percentages were compared to show the significance between the groups.

[3] = system: myocardial ischemia reperfusion injury of rats; assay: myocardial infarction caused by ischemia reperfusion; type: in vivo; details: 1.0 mg/kg
Experimental: The medicaments were diluted to desired concentration with physiological saline. The volume of administered medicament was 4 ml/kg. And the medicaments were given through the left femoral vein.
The animals were anaesthetized by pentobarbital sodium (45 mg/kg) through abdominal cavity and fixed in backstroke position. […] The tracheas were cut open, the trachea cannulas were inserted, and tracheas were connected with a respirometer (Type SC-3, Shanghai) for artificial respiration (32/min, with a respiration ratio of 1:3). The 3rd-5th ribs were cut off after opening the chest, and the pericardiums were opened to expose the heart. A suture (suture No. 0) was put through the root of left anterior descending branch of coronary artery for ligature. After the suture being put through stably for 10 minutes, a plastic concave pipe was placed parallel with the blood vessel, which was then ligated (eliminating the ones without changes of ST and T-wave). The experimental medicaments were administered. After 40 minutes, the ligature suture was cut off along the groove to trigger the reperfusion of the anterior descending branch. The chest was then seamed and independent respiration was recovered.
The bloode samples were taken from the ventral aorta to measure the serum SOD and MDA contents after 2 hours of the ligature. The heart was sliced into 5 pieces under heart ligature and was stained by N-BT. Using a Multimedia Pathological Color Image Analyzing System (Type MPIAS-500, Beijing), the areas of the normal myocardiums and the myocardial infraction were calculated. The degree of myocardial infarction was observed. And the experimental results were statistically analyzed (t-Test).

[4] = system: acute lung injury caused by the lipopolysaccharide; assay: LPS acute lung injury (ALI) model; type: in vivo, Wistar rats
Experimental: And each of the modeling group, the LPS+DEX Group and LPS+SQ Group was again divided into 3 time phasing groups, that is, a one-hour group, a two-hour group, and a four-hour group. There are 10 groups in total, 6 […] per group in this experiment.
The 18 rats of the LPS+DEX Group were injected abdominally with 50 mg/kg Dexamethasone 2 hours before modeling. The 18 rats of the LPS+NS Group were injected with physiological saline 2 hours before modeling. Except for the normal Control group, all the three above-mentioned groups were injected with LPS (4 mg/kg) in the caudal vein.
After all the animals being anaesthetized with chloral hydrate through abdominal injection at the determined time phasing point, 2 ml blood was sampled from the carotid, and centrifuged at 800 gr/min for 8 minutes. The supernatant was extracted and placed at −20° C. in a refrigerator for future usage. The chest was opened and the lower lobes of the right lung were sampled They were placed in the EP tubes treated with DEPC solution and immediately put at −70° C. in a refrigerator for the total RNA extraction. The upper lobes of the right lung were sampled and dipped in 10% formaldehyde solution to fix. The left lungs were taken for the ratio of wet/dry weight measurement.
4. At the corresponding timing point, the animal lung tissues were taken and observed with human eyes and under the microscope using HE Staining Method. The ratio of tissues wetdry weight was also measured.

[5] = influence upon the lethal effect of MTX; type: in vivo, mice; details: MTX 22 mg/kg i.p.; composition 0.2 ml i.p. daily for eight days
Experimental: 2) The mice were divided into two groups and inoculated the tumor cells according to the method above. […] On the 4th day of the administration, the mice were inoculated tumor cell and intraperitoneally injected 22 mg/kg aqueous solution of MTX after 6 hours of inoculation. Within 10 days after MTX injection, the death rate of animals was observed and the survival rates of the two groups of animals were compared.

[6] = serum after 2 hours of the ligature
[7] = Dose/kg 0.5 mg, femoral vein, 180 minutes, N-BT staining
[8] = Herbesser Injection, femoral vein
[9] = LPS 4 mg/kg, DEX 50 mg/kg 2 hours before, SQ 2 ml daily 1 week before

CCCCC[C@H](O)/C=C/[C@@H]1[C@@H](CC(=O)CCCCC(=O)O)[C@@H](O)C[C@H]1O [Composition 6-Keto-PGF1, 6-keto-prostaglandin F1α]
myocardial oxygen consumption (in words) ([1]; 15 minutes after given): obviously reduced | cardiac stroke output (in words) ([2]; dog, in vivo): markedly increased the cardiac stroke output | resistance of outer periphery (in words) ([2]; dog, in vivo): reduced the resistance of outer periphery

COc1ccc([C@@H]2Sc3ccccc3N(CCN(C)C)C(=O)[C@@H]2OC(C)=O)cc1 [Herbesser, Diltiazem Hydrochloride]
Infarcted Area/heart ([3]; left femoral vein): 16.6 ± 2.6 | Infarcted Area/ventricle % ([3]; left femoral vein): 21.6 ± 4.3 % | The area of myocardial infraction ([3]; left femoral vein): 61.72 ± 9.68** mm^2 | Weight of Infarcted Area ([3]; left femoral vein): 0.154 ± 0.027 g | MDA content of blood serum [3, 6]: 2.35 ± 0.07 µmol/L | SOD content of blood serum [3, 6]: 660.9 ± 159.7 ng/mL | Infarcted Area [1, 7]: 281.30 ± 159.9*** mm^2 | Infarcted Area/heart [1, 7]: 2.27 ± 0.73 | Infarcted Area/ventricle [1, 7]: 7.44 ± 2.61 | increasing activity of serum CK and LDH caused by myocardial ischemia and infarction (in words) ([1]; Herbesser, composition 2.4 g crude drug/kg, P<0.05 vs physiological saline): significantly inhibited | blood flow of coronary artery (in words) ([1]; after ligature of the coronary artery): evident effect of increasing blood flow of coronary artery | ET activity in plasma caused by myocardial ischemia and infarction (in words) ([1]; dog, in vivo): obvious inhibiting effect on the ET activity | blood oxygen content of vein sinus (in words) ([1]; no statistical meaning): effect trend of increasing blood oxygen content of vein sinus | blood flow and resistance of coronary artery (in words) ([2]; Herbesser Injection): markedly increased the blood flow and the resistance of coronary artery | arterial blood pressure (in words) [2, 8]: obvious effect of reducing blood pressure | heart rate (in words) [2, 8]: slowing down heart rate

C[C@@H]1C[C@H]2[C@@H]3CCC4=CC(=O)C=C[C@]4(C)[C@@]3(F)[C@@H](O)C[C@]2(C)[C@@]1(O)C(=O)CO [LPS + DEX, Dexamethasone]
Pathological Classification of lung injury: cases Light, 1-hour ([4]; LPS 4 mg/kg caudal vein, DEX 50 mg/kg abdominally 2 hours before, SQ 2 ml abdominally daily 1 week before): 6 | Lung W/D Ratio, 1 h [4, 9]: 4.82 ± 0.23*Δ | Lung W/D Ratio, 2 h [4, 9]: 4.59 ± 0.19*Δ# | Lung W/D Ratio, 4 h [4, 9]: 4.57 ± 0.10*Δ# | Pathological Classification of lung injury: cases Light, 2-hour [4, 9]: 4 | Pathological Classification of lung injury: cases Light, 4-hour [4, 9]: 6 | Pathological Classification of lung injury: cases Middle, 1-hour [4, 9]: 0 | Pathological Classification of lung injury: cases Middle, 2-hour [4, 9]: 2 | Pathological Classification of lung injury: cases Middle, 4-hour [4, 9]: 0 | Pathological Classification of lung injury: cases Severe, 1-hour [4, 9]: 0 | Pathological Classification of lung injury: cases Severe, 2-hour [4, 9]: 0 | Pathological Classification of lung injury: cases Severe, 4-hour [4, 9]: 0 | symptoms (tachypnea, lips cyanosis, mental wilting) after LPS (in words) ([4]; compared with LPS+NS Group): relatively mild | general observation of lung tissues (in words) ([4]; same time phasing points, in comparison to Group LPS+NS): mitigated to different extent

CN(Cc1cnc2nc(N)nc(N)c2n1)c1ccc(C(=O)N[C@@H](CCC(=O)O)C(=O)O)cc1 [MTX, Methotrexate]
Number of Dead Animal after administered MTX, 4th day [5]: 1 | Number of Dead Animal after administered MTX, 5th day [5]: 7 | Number of Dead Animal after administered MTX, 6th day [5]: 3 | Number of Dead Animal after administered MTX, 7th day [5]: 6 | Survival Number after 10 days [5]: 4 | Survival Rate % after 10 days [5]: 19.04%
